Type in all cases: in vivo
The test system of data set [1] is wheat (Triticum aestivum). Put plainly: Test Example 1 upland field foliage treatment, crop phytotoxicity. To be noted: Table 4, upland field foliage treatment, index 0-5. The method in brief: (§1)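 Post-emergence foliar spray, 1 kg a.i./ha, wettable powder diluted in water, applied 14 d after sowing in upland soil. Rating 21 d post-application, 0–5 scale: 5 ≥90%, 4 70–<90%, 3 50–<70%, 2 30–<50%, 1 10–<30%, 0 <10% effect or injury.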

Data set [2] has as its system soybean (Glycine max). Described as above. The note with it: Table 4, upland field foliage treatment, index 0-5. The method, boiled down: as §1
The subject of data set [3] is wheat (Triticum aestivum). Nature of the data set: Test Example 2 upland soil treatment, crop phytotoxicity. To be noted: Table 5, upland soil treatment, index 0-5. The method, boiled down:
(§2)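 Seeds are sown into upland soil and covered by roughly 1 cm of soil, then the compound, formulated as a wettable powder and diluted with water, is applied uniformly to the soil surface the following day at 1 kg active ingredient per hectare. Herbicidal effect or phytotoxicity is graded 0 to 5 after 21 days.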

The test system of data set [4] is soybean (Glycine max). Described as above. To be noted: Table 5, upland soil treatment, index 0-5. The method, boiled down:
as §2

The subject of data set [5] is Stellaria media. Nature of the data set: Test Example 1 upland field foliage treatment. The note with it: Table 4, upland field foliage treatment, index 0-5. The method in brief: as §1
In data set [6] the test system is Digitaria adscendens. Put plainly: Test Example 1 upland field foliage treatment. The note with it: Table 4, upland field foliage treatment, index 0-5. The method, boiled down: as §1
Data set [7] deals with Setaria viridis. Nature of the data set: Test Example 1 upland field foliage treatment. To be noted: Table 4, upland field foliage treatment, index 0-5. The method in brief: as §1
The subject of data set [8] is Chenopodium album. Nature of the data set: Test Example 1 upland field foliage treatment. The note with it: Table 4, upland field foliage treatment, index 0-5. The method in brief:
as §1

The test system of data set [9] is Stellaria media. Put plainly: Test Example 2 upland soil treatment. To be noted: Table 5, upland soil treatment, index 0-5. The method, boiled down: as §2
Data set [10] has as its system Digitaria adscendens. Nature of the data set: Test Example 2 upland soil treatment. To be noted: Table 5, upland soil treatment, index 0-5. The method, boiled down: as §2
Data set [11] has as its system Setaria viridis. Nature of the data set: Test Example 2 upland soil treatment. To be noted: Table 5, upland soil treatment, index 0-5. The method in brief: as §2
The subject of data set [12] is Chenopodium album. Put plainly: Test Example 2 upland soil treatment. To be noted: Table 5, upland soil treatment, index 0-5. The method in brief: as §2
In data set [13] the test system is Rice (Oryza sativa). Nature of the data set: Test Example 3 paddy field treatment, crop phytotoxicity. The note with it: active ingredient 1 kg per hectare, index 0-5; for Herbicidal activity OS (phytotoxicity to rice): paddy field treatment, transplanted rice Koshihikari, wettable powder, 21st day after the dropping. The method in brief: (§3)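 Scoring used a 0–5 scale of herbicidal effect or phytotoxicity, from <10% to ≥90%, taken 21 days after treatment. Treatment was 1 kg a.i./ha as diluted wettable powder dripped onto 4 cm-deep flooded pots sown with the weeds, 10 days after transplanting two-leaf Koshihikari rice.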

For data set [14], the system named is Echinochloa crusgalli. Put plainly: Test Example 3 paddy field treatment. To be noted: active ingredient 1 kg per hectare, index 0-5. The method, boiled down: as §3
The subject of data set [15] is Monochoria vaginalis. Put plainly: Test Example 3 paddy field treatment. To be noted: active ingredient 1 kg per hectare, index 0-5. The method, boiled down:
as §3

Data set [16] deals with Ammannia multiflora. Put plainly: Test Example 3 paddy field treatment. To be noted: active ingredient 1 kg per hectare, index 0-5. The method, boiled down: as §3
Data set [17] concerns Scirpus juncoides. Nature of the data set: Test Example 3 paddy field treatment. To be noted: active ingredient 1 kg per hectare, index 0-5. The method, boiled down: as §3
Setting [18] is: paddy field treatment, wettable powder, 21st day after the dropping.
Where [19] appears, read: Table 6, paddy field treatment, 21st day after dropping.

`CON=C(Cn1cc(C)c(-c2ccccc2)n1)C(=O)NCc1ccccc1` [Compound 30]: the “Herbicidal activity (phytotoxicity) TA: Wheat (Triticum aestivum)” value (“Herbicidal activity (phytotoxicity) TA” for short) in data set [1] was 0 (herbicidal effect of not less than 0% and less than 10%, or phytotoxicity of 0% or more and less than 10%); in data set [3] it was 0 (herbicidal effect of not less than 0% and less than 10%, or phytotoxicity of 0% or more and less than 10%). Besides, the “Herbicidal activity (phytotoxicity) GM: Soybean (Glycine max)” value (“Herbicidal activity (phytotoxicity) GM” for short) in [2] is 0 (herbicidal effect of not less than 0% and less than 10%, or phytotoxicity of 0% or more and less than 10%); in [4], 0 (herbicidal effect of not less than 0% and less than 10%, or phytotoxicity of 0% or more and less than 10%). In addition, the “Herbicidal activity SM: Stellaria media” value in data set [5] was 3 (herbicidal effect of not less than 50% and less than 70%, or phytotoxicity of 50% or more and less than 70%); in data set [9] it was 3 (herbicidal effect of not less than 50% and less than 70%, or phytotoxicity of 50% or more and less than 70%). In addition, the “Herbicidal activity DA: Digitaria adscendens” value (“Herbicidal activity DA” for short) in [6] was 4 (herbicidal effect of not less than 70% and less than 90%, or phytotoxicity of 70% or more and less than 90%); in data set [10], 3 (herbicidal effect of not less than 50% and less than 70%, or phytotoxicity of 50% or more and less than 70%). Moreover, the “Herbicidal activity SV: Setaria viridis” value is 3 (herbicidal effect of not less than 50% and less than 70%, or phytotoxicity of 50% or more and less than 70%) in data set [7]; 4 (herbicidal effect of not less than 70% and less than 90%, or phytotoxicity of 70% or more and less than 90%) in [11]. In addition, the “Herbicidal activity CA: Chenopodium album” value (shortened to “Herbicidal activity CA”) was 4 (herbicidal effect of not less than 70% and less than 90%, or phytotoxicity of 70% or more and less than 90%) in [8]; 4 (herbicidal effect of not less than 70% and less than 90%, or phytotoxicity of 70% or more and less than 90%) in data set [12]. Further, the “Herbicidal activity OS (phytotoxicity to rice)” value in [13] is 0 (herbicidal effect of not less than 0% and less than 10%, or phytotoxicity of 0% or more and less than 10%). Moreover, the “Herbicidal activity EC” value in data set [14] (setting [18]) was 4 (herbicidal effect of not less than 70% and less than 90%, or phytotoxicity of 70% or more and less than 90%). In addition, the “Herbicidal activity MV” value in data set [15] (setting [18]) is 5 (herbicidal effect of not less than 90%, or phytotoxicity of 90% or more). For the same compound, the “Herbicidal activity AM” value in [16] (setting [18]) was 4 (herbicidal effect of not less than 70% and less than 90%, or phytotoxicity of 70% or more and less than 90%). In addition, in [17] (setting [18]), the “Herbicidal activity SJ” value is 4 (herbicidal effect of not less than 70% and less than 90%, or phytotoxicity of 70% or more and less than 90%).

Regarding `CON=C(Cn1cc(C)c(-c2ccccc2)n1)C(=O)NC1CCCCC1` [Compound 24], the “Herbicidal activity (phytotoxicity) TA” value in data set [1] was 0 (herbicidal effect of not less than 0% and less than 10%, or phytotoxicity of 0% or more and less than 10%); in data set [3], 0 (herbicidal effect of not less than 0% and less than 10%, or phytotoxicity of 0% or more and less than 10%). In addition, the “Herbicidal activity (phytotoxicity) GM” value in data set [2] is 0 (herbicidal effect of not less than 0% and less than 10%, or phytotoxicity of 0% or more and less than 10%); in data set [4], 0 (herbicidal effect of not less than 0% and less than 10%, or phytotoxicity of 0% or more and less than 10%). Besides, the “Herbicidal activity SM: Stellaria media” value was 4 (herbicidal effect of not less than 70% and less than 90%, or phytotoxicity of 70% or more and less than 90%) in data set [5]; 4 (herbicidal effect of not less than 70% and less than 90%, or phytotoxicity of 70% or more and less than 90%) in data set [9]. Also, the “Herbicidal activity DA” value in data set [6] is 3 (herbicidal effect of not less than 50% and less than 70%, or phytotoxicity of 50% or more and less than 70%); in data set [10], 3 (herbicidal effect of not less than 50% and less than 70%, or phytotoxicity of 50% or more and less than 70%). In addition, the “Herbicidal activity SV: Setaria viridis” value in data set [7] is 4 (herbicidal effect of not less than 70% and less than 90%, or phytotoxicity of 70% or more and less than 90%); in [11], 4 (herbicidal effect of not less than 70% and less than 90%, or phytotoxicity of 70% or more and less than 90%). For the same compound, the “Herbicidal activity CA” value in data set [8] is 4 (herbicidal effect of not less than 70% and less than 90%, or phytotoxicity of 70% or more and less than 90%); in data set [12], 5 (herbicidal effect of not less than 90%, or phytotoxicity of 90% or more). In addition, the “Herbicidal activity OS (phytotoxicity to rice)” value in data set [13] is 0 (herbicidal effect of not less than 0% and less than 10%, or phytotoxicity of 0% or more and less than 10%). Moreover, the “Herbicidal activity EC” value in [14] (setting [18]) was 4 (herbicidal effect of not less than 70% and less than 90%, or phytotoxicity of 70% or more and less than 90%). In addition, the “Herbicidal activity MV” value in data set [15] (setting [18]) is reported as 5 (herbicidal effect of not less than 90%, or phytotoxicity of 90% or more). Moreover, in [16] (setting [18]), the “Herbicidal activity AM” value was 4 (herbicidal effect of not less than 70% and less than 90%, or phytotoxicity of 70% or more and less than 90%). In addition, the “Herbicidal activity SJ” value in data set [17] (setting [18]) was 4 (herbicidal effect of not less than 70% and less than 90%, or phytotoxicity of 70% or more and less than 90%).

For `CON=C(Cn1cc(C)c(-c2ccccc2)n1)C(=O)N1CCCC1` [Compound 118], the “Herbicidal activity (phytotoxicity) TA” value is 0 (herbicidal effect of not less than 0% and less than 10%, or phytotoxicity of 0% or more and less than 10%) in data set [1]; 0 (herbicidal effect of not less than 0% and less than 10%, or phytotoxicity of 0% or more and less than 10%) in data set [3]. Further, the “Herbicidal activity (phytotoxicity) GM” value is 0 (herbicidal effect of not less than 0% and less than 10%, or phytotoxicity of 0% or more and less than 10%) in data set [2]; 0 (herbicidal effect of not less than 0% and less than 10%, or phytotoxicity of 0% or more and less than 10%) in data set [4]. The “Herbicidal activity SM: Stellaria media” value is 5 (herbicidal effect of not less than 90%, or phytotoxicity of 90% or more) in [5]; 4 (herbicidal effect of not less than 70% and less than 90%, or phytotoxicity of 70% or more and less than 90%) in [9]. Also, the “Herbicidal activity DA” value is 4 (herbicidal effect of not less than 70% and less than 90%, or phytotoxicity of 70% or more and less than 90%) in data set [6]; 3 (herbicidal effect of not less than 50% and less than 70%, or phytotoxicity of 50% or more and less than 70%) in data set [10]. The “Herbicidal activity SV: Setaria viridis” value in data set [7] was 3 (herbicidal effect of not less than 50% and less than 70%, or phytotoxicity of 50% or more and less than 70%); in [11], 3 (herbicidal effect of not less than 50% and less than 70%, or phytotoxicity of 50% or more and less than 70%). Besides, the “Herbicidal activity CA” value in data set [8] is 4 (herbicidal effect of not less than 70% and less than 90%, or phytotoxicity of 70% or more and less than 90%); in [12], 4 (herbicidal effect of not less than 70% and less than 90%, or phytotoxicity of 70% or more and less than 90%). Further, the “Herbicidal activity (phytotoxicity) OS” value in data set [13] (Table 6, paddy field treatment, transplanted rice, 21st day after dropping) was 0 (herbicidal effect of not less than 0% and less than 10%, or phytotoxicity of 0% or more and less than 10%). The “Herbicidal activity EC” value in data set [14] (setting [19]) is 3 (herbicidal effect of not less than 50% and less than 70%, or phytotoxicity of 50% or more and less than 70%). For the same compound, the “Herbicidal activity MV” value in data set [15] (setting [19]) was 4 (herbicidal effect of not less than 70% and less than 90%, or phytotoxicity of 70% or more and less than 90%). The “Herbicidal activity AM” value in data set [16] (setting [19]) was 4 (herbicidal effect of not less than 70% and less than 90%, or phytotoxicity of 70% or more and less than 90%). Further, the “Herbicidal activity SJ” value in [17] (setting [19]) is 4 (herbicidal effect of not less than 70% and less than 90%, or phytotoxicity of 70% or more and less than 90%).

The record behind these values is patent US7192906B2, “Substituted pyrazole derivatives, production process thereof, and herbicide compositions containing the derivatives” (SDS Biotech K.K., priority 2001, dated 2007).
